Assay results as given in US9701709B2 (REATA PHARMACEUTICALS, INC., priority 2012, dated 2017).
Like-named read-outs stand apart in the source and are kept apart here.

Tests used:
[1] = system: human NQO1 ARE (Nrf2) in HuH-7 human hepatoma cells; assay: NQO1-ARE luciferase reporter in HuH-7; format: cell-based; conditions: 15.6 nM, 18 h
Text: The first luciferase reporter tested was under the control of a single ARE derived from the promoter of the human NQO1 gene, which allows for quantitative assessment of the endogenous activity of the Nrf2 transcription factor in cultured mammalian cells. […] The NQO1-ARE-luciferase reporter plasmid was constructed by inserting the human NQO1-ARE ([NT] ID NO: 31) into the pLuc-MCS vector using HindIII/XhoI cloning sites (GenScript Corp., Piscataway, N.J.). […] Firefly and Renilla luciferase activity was assayed by Dual-Glo Luciferase Assay (cat # E2920, Promega), and the luminescence signal was measured on an L-Max II luminometer (Molecular Devices). Firefly luciferase activity was normalized to the Renilla activity, and fold induction over a vehicle control (DMSO) of normalized Firefly activity was calculated. […] Values represent the average of three independent experiments.

[2] = system: Nrf2 target genes (NQO1, HMOX1, GCLM, TXNRD1) in HFL1 lung fibroblasts; assay: Nrf2 target gene mRNA (qPCR) in HFL1; format: cell-based, human; conditions: HFL1, 18 h
Description: HFL1 cells were cultured in F-12K media supplemented with 10% fetal bovine serum and 1% penicillin-streptomycin. BEAS-2B cells were cultured in DMEM/F-12 media supplemented with 10% fetal bovine serum and 1% penicillin-streptomycin. […] Each well received the same amount of vehicle. Following treatment, media was removed and cells were harvested using RLT buffer (Qiagen). Lysates were homogenized using QIAShredder columns (Qiagen, Catalog #79654) and RNA was isolated using RNeasy Mini kits (Qiagen, Catalog #74104). For reverse transcription, RNA (1 μg) was combined with Oligo(dT)12-18 primer and H2O in a final volume of 23.25 μL. The mixture was heated to 70° C. for 10 min and then placed on ice. A master mix containing 8 μL 5×1st strand buffer, 2 μL 1 mg/ml BSA, 2 μL 20 mM DTT, 4 μL 5 mM dNTP mix, 0.25 μL RNaseOUTTM and 0.5 μL […]® II reverse transcriptase was added to the RNA mixture and incubated at 42° C. for 1 h. The reaction was inactivated by heating to 70° C. for 10 min. The reaction mixture was diluted 1:3 with H2O prior to use in qPCR. […] The relative abundance of each Nrf2 target gene was determined using the comparative CT method (ΔΔCT). […]

[3] = system: NQO1 enzymatic activity in RAW264.7 mouse macrophage cells; assay: NQO1 enzymatic activity (modified Prochaska assay) in RAW264.7; format: cell-based; conditions: RAW264.7, 24 h
Description: Consistent with induction of Nrf2 target genes and corresponding protein products, treatment of RAW264.7 mouse macrophage cells for 24 h increased NQO1 enzymatic activity in a dose-dependent manner, with increases evident at 7.8 nM (FIG. 7). NQO1 enzymatic activity was measured by a modified Prochaska assay (Prochaska and Santamaria, Anal Biochem. 169:328-336, 1988, which is incorporated herein by reference).

[4] = system: Alt1, Alt2, Ast1, Ast2 mRNA in AML-12 hepatocytes; assay: Transaminase gene mRNA (qPCR) in AML-12; format: cell-based, mouse; conditions: 250 nM or 500 nM, 18 h
Description: One hypothesis for this effect is that AIMs directly or indirectly increase transaminase gene expression in the absence of cellular toxicity. […] AML-12 cells were plated in 6-well culture dishes at 3×10^5 cells per well using 2 mL of media per well. […] Each well received 0.1% DMSO. Three independent replicate experiments were performed. Following treatment, media was removed and cells were harvested using RLT buffer (Qiagen). Lysates were homogenized using QIAShredder columns (Qiagen, Catalog #79654) and RNA was isolated using RNeasy Mini kits (Qiagen, Catalog #74104). For reverse transcription, RNA (1 μg) was combined with Oligo(dT)12-18 primer and H2O in a final volume of 23.25 μL. The mixture was heated to 70° C. for 10 min and then placed on ice. A master mix containing 8 μL 5×1st strand buffer, 2 μL 1 mg/ml BSA, 2 μL 20 mM DTT, 4 μL 5 mM dNTP mix, 0.25 μL RNaseOUTTM and 0.5 μL […]® II reverse transcriptase was added to the RNA mixture and incubated at 42° C. for 1 h. The reaction was inactivated by heating to 70° C. for 10 min. The reaction mixture was diluted 1:3 with H2O prior to use in qPCR. 2.5 μL of the diluted reverse transcription reaction was combined with one set of PCR primers (0.36 μM final concentration), 2× iQTM SYBR® Green Supermix (Bio-Rad, Catalog #170-8885) and H2O to a final volume of 20 pt. Sequences for PCR primers are as follows: […] All primers had previously been validated for specificity and amplification efficiency. cDNA was amplified using the following cycle conditions: (95° C. for 3 min, 44 cycles of 95° C. for 30 sec, 60° C. for 15 sec, 72° C. for 15 sec, followed by a melt curve of 55° C. to 95° C. in increments of 0.5° C.). The relative abundance of each target gene was determined using the comparative CT method (ΔΔCT). PCR reactions were run in triplicate wells for each sample.

[5] = system: bleomycin-induced pulmonary fibrosis
[6] = Plasma protein binding (ultracentrifugation), mouse
[7] = 3 and 10 mg/kg daily for 28 days

SMILES: CC1(C)CC[C@]2(NC(=O)C(C)(F)F)CC[C@]3(C)[C@H](C(=O)C=C4[C@@]5(C)C=C(C#N)C(=O)C(C)(C)[C@@H]5CC[C@]43C)[C@@H]2C1 [RTA 408, N-((4aS,6aR,6bS,8aR,12aS,14aR,14bS)-11-cyano-2,2,6a,6b,9,9,12a-heptamethyl-10,14-dioxo-1,2,3,4,4a,5,6,6a,6b,7,8,8a,9,10,12a,14,14a,14b-octadecahydropicen-4a-yl)-2,2-difluoropropanamide]
- Induction of luciferase activity, NQO1-ARE reporter [1]: ~2 fold
- Lowest concentration at which induction of Nrf2 target genes was evident [2]: 15.6 nM
- Concentration at which increases in NQO1 enzymatic activity were evident [3]: 7.8 nM
- mRNA levels of alanine transaminase 1 (Alt1 or Gpt1) [4]: increased mRNA levels of alanine transaminase 1
- mRNA levels of alanine transaminase 2 (Alt2 or Gpt2) [4]: no effect
- mRNA levels of aspartate transaminase 1 (Ast1 or Got1) [4]: increased mRNA levels
- mRNA levels of aspartate transaminase 2 (Ast2 or Got2) [4]: reduced mRNA levels
- Animals with Mild trichrome staining intensity ([5]; 3 mg/kg): 0
- Animals with Minimal trichrome staining intensity ([5]; 3 mg/kg): 0
- Animals with Moderate trichrome staining intensity ([5]; 3 mg/kg): 7
- Animals with Mild trichrome staining intensity ([5]; 10 mg/kg): 4
- Animals with Minimal trichrome staining intensity ([5]; 10 mg/kg): 3
- Animals with Moderate trichrome staining intensity ([5]; 10 mg/kg): 1
- Tolerability of 30-mg/kg dose (stopped on day 14) ([5]; 30 mg/kg daily oral gavage): excessive dehydration and diarrhea
- PMN cell infiltration into the lungs [5, 7]: significantly suppressed polymorphonuclear (PMN) cell infiltration into the lungs
- Reduction in hydroxyproline deposition [5, 7]: 10%-20%
- Lung Nrf2 target enzyme activity ([5]; rats exposed to bleomycin): significantly and dose-dependently increased NQO1, Txnrd, Gsr, and Gst enzyme activity
- fraction unbound [6]: 0.07
